The test system of this assay is M. tuberculosis isoniazid resistant strain. As to the kind of experiment: microbe, parasite or virus in culture. In kind it is cell-based. Conditions: Mycobacterium tuberculosis.

We go through two compounds from US10065927B2, “α-ketoacylic isoniazid compounds, process for producing said compounds, use of the compounds in the treatment of tuberculosis” (priority 2015, dated 2018).

Converted amounts (≈) assume the structure as drawn.

The compound `CC(=O)Nc1ccccc1C(=O)C(=O)NNC(=O)c1ccncc1` [Compound 2, N-(2-(2-(2-Isonicotinoylhydrazine)-2-Oxoacetyl)Phenyl) Acetamide] returned an MIC of 19.2 µM (≈ 6.26 µg/mL). Then `NNC(=O)c1ccncc1` [Isoniazid], with over 73 µM.
